Experimental data taken from ChEMBL document CHEMBL4390649, “Fine-tuning the neuroprotective and blood-brain barrier permeability profile of multi-target agents designed to prevent progressive mitochondrial dysfunction” (Eur J Med Chem, 2019).
Calls of active or inactive are those of the source. The calls are words filed in the database; no cut-off is given here.

Key:
[1] = Antioxidant activity assessed as DPPH radical scavenging activity measured after 45 mins by UV-Visible spectrophotometric based assay; type: functional
[2] = Antioxidant activity assessed as ABTS radical scavenging activity measured after 15 mins by UV-Visible spectrophotometric based assay; type: functional
[3] = Electrochemical behavior of the compound assessed as redox potential corrected toward saturated Ag/AgCl reference electrode by cyclic voltammetry
[4] = Electrochemical behavior of the compound assessed as redox potential corrected toward saturated Ag/AgCl reference electrode by differential pulse voltammetry
[5] = system: SH-SY5Y; assay: Neuroprotective activity against TBHP-induced oxidative damage in human SH-SY5Y cells assessed as increase in cell viability at 10 uM pretreated for 24 hrs followed by TBHP stimulation measured after 4 hrs by MTT assay relative to control; type: functional, cell-based
[6] = Cytotoxicity against human SH-SY5Y cells assessed as cell metabolic activity at 50 uM incubated for 24 hrs by MTT assay relative to control; type: ADME, cell-based; conditions: read-out: Activity
[7] = Cytotoxicity against human HepG2 cells assessed as cell metabolic activity at 10 uM incubated for 48 hrs by resazurin assay relative to control; type: ADME, cell-based; conditions: read-out: Activity
[8] = Metal chelating activity assessed as compound-Fe2+ complex formation at 100 uM incubated for 10 mins by ferrozine spectrophotometric assay
[9] = Cytotoxicity against human SH-SY5Y cells assessed as cell metabolic activity at 10 uM incubated for 24 hrs by MTT assay relative to control; type: ADME, cell-based; conditions: read-out: Activity
[10] = Cytotoxicity against human HepG2 cells assessed as cell metabolic activity at 50 uM incubated for 48 hrs by resazurin assay relative to control; type: ADME, cell-based; conditions: read-out: Activity
[11] = system: SH-SY5Y; assay: Induction of ROS generation in human SH-SY5Y cells at 50 uM incubated for 24 hrs by DCFH-DA probe based fluorescence assay relative to control; type: functional
[12] = system: SH-SY5Y; assay: Neuroprotective activity against 6-OHDA-induced toxicity in human SH-SY5Y cells assessed as reduction in cell damage at 10 to 50 uM pretreated for 24 hrs followed by 6-OHDA challenge and measured after 24 hrs by MTT assay relative to control; type: functional
[13] = system: SH-SY5Y; assay: Neuroprotective activity against H2O2-induced oxidative damage in human SH-SY5Y cells assessed as reduction in cell damage at 10 uM pretreated for 24 hrs followed by H2O2 challenge measured after 30 mins by MTT assay relative to control; type: functional
[14] = system: SH-SY5Y; assay: Neuroprotective activity against H2O2-induced oxidative damage in human SH-SY5Y cells assessed as reduction in cell damage at 50 uM pretreated for 24 hrs followed by H2O2 challenge measured after 30 mins by MTT assay relative to control; type: functional
[15] = system: SH-SY5Y; assay: Neuroprotective activity against TBHP-induced oxidative damage in human SH-SY5Y cells assessed as increase in cell viability at 50 uM pretreated for 24 hrs followed by TBHP stimulation measured after 4 hrs by MTT assay relative to control; type: functional
[16] = Cytotoxicity against human CMEC/D3 cells assessed as reduction in cell viability at 50 to 100 uM incubated for 4 hrs by MTT assay relative to control; type: cell-based; conditions: hcmec/d3, 4 h
[17] = Apparent permeability across apical to basolateral side in human CMEC/D3 cells at 100 uM incubated up to 180 mins by UV-VIS spectroscopic method; type: ADME, cell-based; conditions: hcmec/d3, 3 h
[18] = Apparent permeability across apical to basolateral side in human CMEC/D3 cells at 100 uM incubated by UV-VIS spectroscopic method; type: ADME, cell-based; conditions: hcmec/d3, 100 µM, TDE = time-dependent effect

Row | Structure (SMILES) | IC50 [1] | IC50 [2] | Activity [3] | Activity [4] | Activity [5] | viability at 24 h, 50 µM [6] | viability at 48 h, 10 µM [7] | Activity [8] | viability at 24 h, 10 µM [9] | viability at 48 h, 50 µM [10] | Activity [11] | Activity [12] | Activity [13] | Activity [14] | Activity [15] | Activity [16] | permeability [17] | permeability [18]
1 | O=C(O)CCc1ccc(O)c(O)c1 [DIHYDROCAFFEIC ACID] | 24.8 µM | 24 µM | 112 mV | 216 mV | – | – | – | – | – | – | – | – | – | – | – | – | – | –
2 | CS(=O)(=O)[O-].O=C(Cc1cc(O)c(O)c(O)c1)NCCCCCC[P+](c1ccccc1)(c1ccccc1)c1ccccc1 | 23.5 µM | 9.5 µM | 58 mV | 469 mV | inactive | 93.7% | 106% | 95.3% | 90.6% | 87.7% | Active | Active | inactive | inactive | inactive | Non-Toxic | 65.4% | Tde
3 | Cc1c(C)c2c(c(C)c1O)CCC(C)(C(=O)O)O2 (stereo not given) [TROLOX] | 31.1 µM | 24.5 µM | 113 mV | 113 mV | – | 3.62% | 5.99% | – | 3.62% | 5.99% | – | – | – | – | – | – | – | –
4 | O=C(NCCCCCC[P+](c1ccccc1)(c1ccccc1)c1ccccc1)c1cc(O)c(O)c(O)c1.[Br-] | 14 µM | 6.5 µM | 115 mV | 559 mV | inactive | 98.2% | 89.4% | > 80% | 100% | 88.5% | Active | inactive | 70.8 - 83.3% | 70.8 - 83.3% | inactive | – | – | –
5 | O=C(O)c1ccc(O)c(O)c1 [PROTOCATECHUIC ACID] | 42 µM | 26.1 µM | 234 mV | 234 mV | – | – | – | – | – | – | – | – | – | – | – | – | – | –
6 | O=C(O)Cc1ccc(O)c(O)c1 [3,4-DIHYDROXYPHENYLACETIC ACID] | 26.2 µM | 18 µM | 122 mV | 270 mV | – | – | – | – | – | – | – | – | – | – | – | – | – | –
7 | CS(=O)(=O)[O-].O=C(CCc1ccc(O)c(O)c1)NCCCCCC[P+](c1ccccc1)(c1ccccc1)c1ccccc1 | 55.6 µM | 28.3 µM | 132 mV | 132 mV | inactive | 97.5% | 104% | > 80% | 93.5% | 99.3% | 83.1% | Active | – | Active | inactive | Non-Toxic | 24.6% | Tde
8 | O=C(O)CCc1cc(O)c(O)c(O)c1 | 11.1 µM | 9.2 µM | 120 mV | 543 mV | – | – | – | – | – | – | – | – | – | – | – | – | – | –
9 | O=C(O)/C=C/c1cc(O)c(O)c(O)c1 | 10.3 µM | 4.6 µM | 56 mV | 589 mV | – | – | – | – | – | – | – | – | – | – | – | – | – | –
10 | O=C(O)c1cc(O)c(O)c(O)c1 [GALLIC ACID] | 9.9 µM | 7.8 µM | 120 mV | 559 mV | – | – | – | – | – | – | – | – | – | – | – | – | – | –
11 | O=C(NCCCCCC[P+](c1ccccc1)(c1ccccc1)c1ccccc1)c1ccc(O)c(O)c1 | 31 µM | 20.7 µM | 219 mV | 219 mV | inactive | 96.9% | 97.4% | > 80% | 102% | 90.3% | – | inactive | inactive | – | inactive | – | – | –
12 | O=C(NCCCCCCCCCC[P+](c1ccccc1)(c1ccccc1)c1ccccc1)c1cc(O)c(O)c(O)c1 | 10.2 µM | 7.4 µM | 114 mV | 725 mV | inactive | 101% | 108% | > 80% | 107% | 108% | Active | inactive | 70.8 - 83.3% | 70.8 - 83.3% | inactive | – | – | –
13 | CS(=O)(=O)[O-].O=C(/C=C/c1ccc(O)c(O)c1)NCCCCCC[P+](c1ccccc1)(c1ccccc1)c1ccccc1 | 29.5 µM | 30.5 µM | 164 mV | 164 mV | inactive | 97.6% | 111% | > 80% | 103% | 112% | – | inactive | 70.8 - 83.3% | 70.8 - 83.3% | inactive | – | – | –
14 | CS(=O)(=O)[O-].O=C(CCc1cc(O)c(O)c(O)c1)NCCCCCC[P+](c1ccccc1)(c1ccccc1)c1ccccc1 | 20.2 µM | 10.9 µM | 11 mV | 547 mV | inactive | 91.7% | 113% | > 80% | 95.9% | 117% | Active | Active | – | – | inactive | Non-Toxic | 23.7% | Tde
15 | CS(=O)(=O)[O-].O=C(Cc1ccc(O)c(O)c1)NCCCCCC[P+](c1ccccc1)(c1ccccc1)c1ccccc1 | 55 µM | 27.2 µM | 141 mV | 141 mV | inactive | 96.9% | 103% | > 80% | 95.3% | 100% | 81.3% | Active | – | inactive | 22.3% | Non-Toxic | 71.9% | Tde
16 | CS(=O)(=O)[O-].O=C(/C=C/c1cc(O)c(O)c(O)c1)NCCCCCCCCCC[P+](c1ccccc1)(c1ccccc1)c1ccccc1 | 13.7 µM | 7.5 µM | 57 mV | 741 mV | inactive | 101% | 105% | > 80% | 99% | 108% | Active | inactive | 70.8 - 83.3% | 70.8 - 83.3% | inactive | – | – | –
17 | O=C(O)/C=C/c1ccc(O)c(O)c1 [CAFFEIC ACID] | 28.5 µM | 20.5 µM | 168 mV | 168 mV | – | – | – | – | – | – | – | – | – | – | – | – | – | –
18 | O=C(O)Cc1cc(O)c(O)c(O)c1 | 6.8 µM | 4.7 µM | 135 mV | 550 mV | – | – | – | – | – | – | – | – | – | – | – | – | – | –
